Key:
[1] = tested on: Prostate-specific Antigen (PSA) production in 22RV1 cells; experiment: PSA assay: inhibition of PSA production in 22RV1 cells (ELISA); type: cell-based; conditions: Homo sapiens, 72 h, R1881 1 ng/ml, three days
Protocol: (§1) PSA Assay (Inhibition Test of the Compound of the Present Invention on Prostate-Specific Antigen (PSA) Production in Various Prostate Cancer Cells)
Androgen dependent LNCaP and 22RV1 cells were purchased from the American Type Culture Collection (ATCC, Manassas, Va.). These cells were grown in RPMI 1640 medium supplemented with 10% fetal bovine serum (FBS), 100 U/mL penicillin, 100 μg/mL streptomycin, and 0.25 μg/mL amphotericin B. The cells were maintained at 37° C. and 5% CO2. LNCaP cells between passage 20 and 35, and 22RV1 cells between passage 30 and 50 were used for experiments. LNCaP is a hormone sensitive cell line, while 22RV1 is a hormone refractory prostate cancer cell line, which derived from a primary prostate tumor. This cell line was isolated from a xenograft (CWR22R-2152) that was serially propagated in mice after castration-induced regression and relapse of the parental, androgen-dependent CWR xenograft. For the PSA assay, human prostate cancer cells LNCaP or 22RV1 were seeded in a 96-well plate at a concentration of 5000 cells/100 μl/well. On the following day, Methyltrienolone (R1881, AR agonist) (final concentration 1 ng/ml), test compounds or bicalutamide (Casodex®, AstraZeneca) (final concentration 0.005 to 20 μM) were added. Three days after the addition, the concentration of PSA in the supernatant of the culture solution was measured by ELISA. ELISAs for human PSA in culture medium were performed using the ultra-sensitive assay procedure and reagents in the Active™ PSA assay kit (Diagnostic Systems Laboratories Inc., Webster, Tex.). Culture medium and standards (200 μl/well) were incubated in antibody-coated plates for 2 h at room temperature on a Titer plate shaker at 500-600 rpm. Wells were then washed five times. The HRP conjugate was diluted 1:20 with assay buffer, and 100 μl was added to all wells. The plates were incubated for 30 min at room temperature on the shaker and washed as before, and 100 μl TMB (3,3′,5,5′-tetramethylbenzidine, 0.4 g/l) was added. The plates were incubated for 10 min on the shaker, and the reaction was terminated with 100 μl stop solution. The plates were read using a plate reader at 450 nm with a 650 nm reference filter. PSA levels were normalized for differences in growth of LNCaP or 22RV1 cells following various treatments as determined by the MTS assay. IC50 of PSA was calculated based on a seven point assay (concentrations of tested compound) and expressed as micromolar (uM). […] ND means not determined

22RV1 cells = experiment: Cell viability assay, 22RV1 cells; type: cell-based, human; conditions: Homo sapiens, 22Rv1, 48 h, read-out: Inhibition of cell viability, 22RV1 % inhibition at 2.5 uM
Protocol: (§2) LNCaP and 22RV1 cells were maintained in RPMI 1640 medium supplemented with 10% fetal bovine serum (FBS), 100 U/mL penicillin, 100 μg/mL streptomycin, and 0.25 μg/mL amphotericin B, splitting cells when they reached 80-90% confluence. In order to test compounds, 10,000 cells/well were plated in 96 cell culture plates using 100 ul/well plating medium, cultured overnight at 37° C. in a cell culture incubator. After carefully remove plating medium, 80 ul/well of pre-warmed assay medium was added, followed by adding 10 ul/well test compounds or bicalutamide (final concentration from 20 uM to 0.1 uM), incubated at 37° C. for 30 minutes, then adding 10 ul/well freshly prepared Methyltrienolone (R1881, AR agonist) (final concentration 1 ng/ml) to each well, incubate at 37° C. for 48-hour. At the end of incubation, 20 μl MTT (2.5 mg/ml in PBS) was added to each well, and the cells were further incubated for 2 h at 37 C to allow a complete reaction between the dye and the enzyme mitochondrial dehydrogenase in the viable cells. After removal of the residual dye and medium, 100 μl dimethylsulfoxide was added to each well, and the absorbance at 570 nm was measured with an microplate reader. The fold induction over background by 1 nM R1881 in the absence of test compounds is standardized as 100% and experimental result is expressed as percentage of inhibition by testing compounds at 2.5 micromolar (uM).

LNCaP cells = experiment: Cell viability assay, LNCaP cells; type: cell-based; conditions: Homo sapiens, LNCaP, 48 h, read-out: Inhibition of cell viability, LNCaP % inhibition at 2.5 uM
Protocol: as §2

[2] = tested on: Prostate-specific Antigen (PSA) production in LNCaP cells; experiment: PSA assay: inhibition of PSA production in LNCaP cells (ELISA); type: cell-based; conditions: Homo sapiens, 72 h, R1881 1 ng/ml, three days, seven point assay
Protocol: as §1
Androgen dependent LNCaP and 22RV1 cells were purchased from the American Type Culture Collection (ATCC, Manassas, Va.). These cells were grown in RPMI 1640 medium supplemented with 10% fetal bovine serum (FBS), 100 U/mL penicillin, 100 μg/mL streptomycin, and 0.25 μg/mL amphotericin B. The cells were maintained at 37° C. and 5% CO2. LNCaP cells between passage 20 and 35, and 22RV1 cells between passage 30 and 50 were used for experiments. LNCaP is a hormone sensitive cell line, while 22RV1 is a hormone refractory prostate cancer cell line, which derived from a primary prostate tumor. This cell line was isolated from a xenograft (CWR22R-2152) that was serially propagated in mice after castration-induced regression and relapse of the parental, androgen-dependent CWR xenograft. For the PSA assay, human prostate cancer cells LNCaP or 22RV1 were seeded in a 96-well plate at a concentration of 5000 cells/100 μl/well. On the following day, Methyltrienolone (R1881, AR agonist) (final concentration 1 ng/ml), test compounds or bicalutamide (Casodex®, AstraZeneca) (final concentration 0.005 to 20 μM) were added. Three days after the addition, the concentration of PSA in the supernatant of the culture solution was measured by ELISA. ELISAs for human PSA in culture medium were performed using the ultra-sensitive assay procedure and reagents in the Active™ PSA assay kit (Diagnostic Systems Laboratories Inc., Webster, Tex.). Culture medium and standards (200 μl/well) were incubated in antibody-coated plates for 2 h at room temperature on a Titer plate shaker at 500-600 rpm. Wells were then washed five times. The HRP conjugate was diluted 1:20 with assay buffer, and 100 μl was added to all wells. The plates were incubated for 30 min at room temperature on the shaker and washed as before, and 100 μl TMB (3,3′,5,5′-tetramethylbenzidine, 0.4 g/l) was added. The plates were incubated for 10 min on the shaker, and the reaction was terminated with 100 μl stop solution. The plates were read using a plate reader at 450 nm with a 650 nm reference filter. PSA levels were normalized for differences in growth of LNCaP or 22RV1 cells following various treatments as determined by the MTS assay. IC50 of PSA was calculated based on a seven point assay (concentrations of tested compound) and expressed as micromolar (uM). Results on 22RV1 cells are shown as percent inhibition at 2 micromolar (uM). ND means not determined

C57BL/6 mice = experiment: C57BL/6 mouse hair growth model; type: in vivo
From the text: C57BL/6 Mouse Hair Growth Model
Six-to 8-wk-old male C57BL/6 mice in the telogen stage of the hair cycle, weighing 15-20 g, were purchased and housed in community cages under standard conditions. The growth phase of the hair cycle (anagen) was induced in the back skin of mice with all follicles in the resting phase of the hair cycle (telogen; as judged from their homogeneously pink skin color) by being shaved on the lower back using an electric shaver under mild anesthesia. Only mice in the telogen phase (pink skin) were used in the studies. Twenty microliters of test article at two concentrations in propylene glycol/ethanol (30:70, v/v) or the vehicle control was topically applied to the shaved lower back of the mice to cover an area of approximately 1 cm^2 (20 uL/cm^2). Five mice were used in each group. The mice were treated with the compound by topical application twice daily (BID) for 4 weeks. Local irritation was recorded daily before each application, and hair growth scores were recorded twice per week. The scoring system for mouse hair growth was 0 to 4: 0=no hair growth, pink skin color; 1=skin color in shaved area changes from pink to gray without visible hair growth, indicating the onset of anagen; 2=skin color in shaved area is black with tiny hairs; 3=short black hair in shaved area; and 4=hair in shaved area is almost close to surrounding area. […]

## CNC(=O)c1ccc(N2C(=S)N(c3ccc(C#N)c(C(F)(F)F)c3F)C(=O)C2(C)C)cc1F [Example 12, 4-[3-(4-Cyano-2-fluoro-3-trifluoromethyl-phenyl)-5,5-dimethyl-4-oxo-2-thioxo-imidazolidin-1-yl]-2-fluoro-N-methyl-benzamide]
[1]
  inhibition at 2 µM: 71%
22RV1 cells
  cytotoxicity at 2.5 µM: 61%
LNCaP cells
  cytotoxicity at 2.5 µM: 86%
[2]
  IC50: 280 nM
C57BL/6 mice; topical BID for 4 weeks, 0.2% and 1% in 30% propylene glycol and 70% ethanol, FIG. 1
  hair growth stimulation: stimulated hair growth in dose dependent patterns
C57BL/6 mice; topical, compared to reference androgen receptor antagonist RU-58841
  in vivo activity for promoting hair growth compared to RU-58841: better in vivo activity for promoting hair growth

— patent publication US8809550B2, “Androgen receptor antagonists and uses thereof” (priority 2009, dated 2014)
